Assay results from PubChem BioAssay (NCI).
≈ marks a conversion by molar mass, not a printed value. Where “and” joins values, the source holds several entries; their conditions need not be identical. Equal values may be shown once.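 Exposure lasted 48 hours, with cells grown in 96-well plates and compounds tested at five concentrations. Abbreviation: GI50, concentration required for 50% inhibition of growth. At the TGI there is no net growth.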 Calls of active or inactive are those of the source. No stated cut-off is given here; in the data, active means GI50 below about 0.43 µM; inactive means the rest.

Experiments:
Experiment in all cases: NCI tumour cell line growth inhibition, 48 h
HS 578T breast = test system: HS 578T breast
KM12 colon = test system: KM12 colon
M19-MEL melanoma = test system: M19-MEL melanoma
OVCAR-3 ovarian = test system: OVCAR-3 ovarian
UO-31 renal = test system: UO-31 renal
HCC-2998 colon = test system: HCC-2998 colon
CCRF-CEM leukemia = test system: CCRF-CEM leukemia
HOP-18 NSCLC = test system: HOP-18 NSCLC
SNB-75 CNS = test system: SNB-75 CNS

SMILES	TGI (HS 578T breast) [µM]	TGI (KM12 colon)	GI50 (M19-MEL melanoma) [µg/mL]	TGI (M19-MEL melanoma)	TGI (OVCAR-3 ovarian)	GI50 (UO-31 renal) [µM]	GI50 (HCC-2998 colon) [µM]	TGI (HCC-2998 colon)	GI50 (CCRF-CEM leukemia) [µg/mL]	TGI (CCRF-CEM leukemia)	GI50 (HOP-18 NSCLC) [µM]	TGI (HOP-18 NSCLC) [µM]	outcome (HOP-18 NSCLC)	TGI (SNB-75 CNS) [µM]	TGI (UO-31 renal) [µM]
COc1c(O)c2c(c3cc(C(=O)N4CCc5c4c(O)c(OC)c4[nH]c(C(=O)N6CC7CC78C6=CC(=O)c6[nH]cc(C)c68)cc54)[nH]c13)CCN2C(N)=O (configuration not stated)	3.41	9.37 nM and 929 nM and 0.0348 µg/mL	0.0165 (≈ 0.0235 µM)	14.8 nM and 0.041 µg/mL	48.6 nM and > 100 µM and 0.0456 µg/mL	0.223	0.173	0.174 µM and 1.02 µM	0.00439 (≈ 0.00624 µM)	963 nM and 0.0344 µg/mL	0.0126	0.0856	inactive	–	–
O=C(/C=C/c1ccc(OCC(=O)N2CCN(c3ccccc3)CC2)cc1)c1ccc(Cl)cc1	62.3	> 100 µM	–	> 100 µM	> 100 µM	–	–	> 100 µM	–	> 100 µM	–	> 100	–	39.2	> 97.2
CC(=O)OC1C(=O)C(O)C(C)OC1O[C@@H]1C[C@@]2(C)[C@@H]3CC=C4[C@@H](C[C@H](O)C(=O)C4(C)C)[C@]3(C)C(=O)C[C@]2(C)[C@H]1[C@@](C)(O)C(=O)/C=C/C(C)(C)O (some centres not stated)	–	> 10 µM	–	> 10 µM	7.05 µM	–	–	8.32 µM	–	> 7.21 µM	–	4.9	–	1.47	4.95
O=c1n(C2CCCCC2)c(=C(Cl)Cl)c(=C(Cl)Cl)n1C1CCCCC1	–	> 100 µM	–	> 100 µM	> 100 µM	–	–	> 100 µM	–	> 100 µM	–	> 100	–	> 100	> 100
Cc1cccc(C(C)(C)C)c1NC(=O)C(=O)C(C(=O)/C=C\c1ccccc1)C1OC(=O)c2ccccc21 (configuration not stated)	–	> 100 µM	–	> 100 µM	> 100 µM	–	–	> 100 µM	–	> 100 µM	–	> 100	–	> 100	> 100
CC(C)N(C(=O)C12C3C4C5(C#N)C3C1(I)C5C42I)C(C)C (configuration not stated)	–	> 100 µM	–	> 100 µM	> 100 µM	–	–	> 100 µM	–	> 61.8 µM	–	> 100	–	> 100	> 100
CSc1nc(NC2OCC(OC(C)=O)C(OC(C)=O)C2OC(C)=O)c2c(OC(C)=O)c(C)c(=O)oc2n1 (configuration not stated)	–	> 100 µM	–	> 100 µM	> 100 µM	–	–	> 100 µM	–	> 100 µM	–	> 100	–	> 100	> 100
